Three molecules from US20240246942A1, “KINASE INHIBITORS FOR THE TREATMENT OF NEURODEGENERATIVE DISEASES” (priority 2020, published 2024) can be followed below.

In data set [1] the target is T1, panel of 374 wild-type kinases (Homo sapiens, UniProt O95835).
T1 construct: purchased Reaction Biology Corporation
T1 sequence (O95835 1-1130): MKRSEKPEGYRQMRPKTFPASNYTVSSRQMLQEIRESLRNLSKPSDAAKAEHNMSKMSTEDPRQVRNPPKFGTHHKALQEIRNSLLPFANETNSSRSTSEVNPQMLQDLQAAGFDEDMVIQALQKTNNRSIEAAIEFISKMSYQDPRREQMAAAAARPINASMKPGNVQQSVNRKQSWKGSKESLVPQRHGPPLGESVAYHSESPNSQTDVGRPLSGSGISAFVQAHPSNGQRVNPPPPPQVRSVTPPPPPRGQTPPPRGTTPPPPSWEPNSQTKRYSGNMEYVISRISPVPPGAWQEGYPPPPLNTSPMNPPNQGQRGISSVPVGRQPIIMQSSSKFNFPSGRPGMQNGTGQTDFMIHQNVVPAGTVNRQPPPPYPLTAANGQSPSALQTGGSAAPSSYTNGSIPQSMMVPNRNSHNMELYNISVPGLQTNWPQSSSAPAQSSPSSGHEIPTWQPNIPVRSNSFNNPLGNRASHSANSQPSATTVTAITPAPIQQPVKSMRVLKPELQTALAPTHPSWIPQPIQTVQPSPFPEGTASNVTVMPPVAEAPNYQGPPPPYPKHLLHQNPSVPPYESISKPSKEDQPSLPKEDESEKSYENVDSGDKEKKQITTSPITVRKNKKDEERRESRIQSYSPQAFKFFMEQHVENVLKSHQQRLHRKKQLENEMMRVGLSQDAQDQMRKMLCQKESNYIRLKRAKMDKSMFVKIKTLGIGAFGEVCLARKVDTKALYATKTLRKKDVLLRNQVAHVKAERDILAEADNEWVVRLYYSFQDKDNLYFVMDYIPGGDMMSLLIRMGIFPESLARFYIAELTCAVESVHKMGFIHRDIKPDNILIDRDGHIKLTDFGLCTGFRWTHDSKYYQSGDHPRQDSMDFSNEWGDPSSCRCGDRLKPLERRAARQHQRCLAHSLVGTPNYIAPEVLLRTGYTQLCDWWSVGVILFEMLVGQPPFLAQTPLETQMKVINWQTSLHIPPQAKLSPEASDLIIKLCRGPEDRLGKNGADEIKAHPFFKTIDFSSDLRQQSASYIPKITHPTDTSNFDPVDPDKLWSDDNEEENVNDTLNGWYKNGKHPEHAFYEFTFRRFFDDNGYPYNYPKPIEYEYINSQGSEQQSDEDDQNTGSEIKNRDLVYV
The data set is described as follows: biochemical. To be noted: read-out: % Enzyme Activity (relative to DMSO controls), LATS1.

Data set [2] has as its target T2, panel of 374 wild-type kinases (Homo sapiens, UniProt P05129).
T2 construct: purchased Reaction Biology Corporation
Put plainly: biochemical. Conditions: read-out: % Enzyme Activity (relative to DMSO controls), kinase PKCg.

In data set [3] the target is T3, panel of 374 wild-type kinases (Homo sapiens, UniProt P05771).
T3 construct: purchased Reaction Biology Corporation
T3 sequence (P05771 whole entry): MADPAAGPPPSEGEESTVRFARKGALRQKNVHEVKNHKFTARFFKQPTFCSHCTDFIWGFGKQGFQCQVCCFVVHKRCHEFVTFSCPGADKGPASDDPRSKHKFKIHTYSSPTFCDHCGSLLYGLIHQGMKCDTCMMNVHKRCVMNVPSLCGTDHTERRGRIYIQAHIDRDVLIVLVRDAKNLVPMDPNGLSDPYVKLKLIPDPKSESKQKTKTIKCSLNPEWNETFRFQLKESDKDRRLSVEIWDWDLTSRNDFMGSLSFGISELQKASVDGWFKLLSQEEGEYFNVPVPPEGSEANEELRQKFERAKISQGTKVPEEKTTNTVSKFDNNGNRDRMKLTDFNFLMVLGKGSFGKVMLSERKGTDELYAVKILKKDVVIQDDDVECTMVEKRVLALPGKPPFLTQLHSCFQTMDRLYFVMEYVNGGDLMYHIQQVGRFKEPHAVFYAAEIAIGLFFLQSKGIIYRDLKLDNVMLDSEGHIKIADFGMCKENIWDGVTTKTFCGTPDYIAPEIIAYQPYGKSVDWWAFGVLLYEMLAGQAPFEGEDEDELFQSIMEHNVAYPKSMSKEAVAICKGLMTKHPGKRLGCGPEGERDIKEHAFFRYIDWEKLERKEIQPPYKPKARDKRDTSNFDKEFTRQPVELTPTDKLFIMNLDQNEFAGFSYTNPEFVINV
Put plainly: biochemical. Conditions: read-out: % Enzyme Activity (relative to DMSO controls), kinase PKCb1.

For data set [4], the target named is T4, panel of 374 wild-type kinases (Homo sapiens, UniProt P27361).
T4 construct: purchased Reaction Biology Corporation
T4 sequence (P27361 whole entry): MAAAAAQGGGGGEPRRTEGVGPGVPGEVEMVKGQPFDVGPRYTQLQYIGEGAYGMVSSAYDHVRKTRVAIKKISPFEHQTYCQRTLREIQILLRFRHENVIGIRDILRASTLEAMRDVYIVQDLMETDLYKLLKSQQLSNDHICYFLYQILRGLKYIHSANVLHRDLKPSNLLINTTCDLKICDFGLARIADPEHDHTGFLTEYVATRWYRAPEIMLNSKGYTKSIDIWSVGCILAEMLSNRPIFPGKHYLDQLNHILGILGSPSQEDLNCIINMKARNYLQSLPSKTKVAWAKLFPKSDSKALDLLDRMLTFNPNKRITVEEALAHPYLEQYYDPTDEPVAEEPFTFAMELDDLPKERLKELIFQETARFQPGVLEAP
The data set is described as follows: biochemical. To be noted: read-out: % Enzyme Activity (relative to DMSO controls), ERK1.

The target of data set [5] is T5, panel of 374 wild-type kinases (Homo sapiens, UniProt Q86UX6).
T5 construct: purchased Reaction Biology Corporation
T5 sequence (Q86UX6 whole entry): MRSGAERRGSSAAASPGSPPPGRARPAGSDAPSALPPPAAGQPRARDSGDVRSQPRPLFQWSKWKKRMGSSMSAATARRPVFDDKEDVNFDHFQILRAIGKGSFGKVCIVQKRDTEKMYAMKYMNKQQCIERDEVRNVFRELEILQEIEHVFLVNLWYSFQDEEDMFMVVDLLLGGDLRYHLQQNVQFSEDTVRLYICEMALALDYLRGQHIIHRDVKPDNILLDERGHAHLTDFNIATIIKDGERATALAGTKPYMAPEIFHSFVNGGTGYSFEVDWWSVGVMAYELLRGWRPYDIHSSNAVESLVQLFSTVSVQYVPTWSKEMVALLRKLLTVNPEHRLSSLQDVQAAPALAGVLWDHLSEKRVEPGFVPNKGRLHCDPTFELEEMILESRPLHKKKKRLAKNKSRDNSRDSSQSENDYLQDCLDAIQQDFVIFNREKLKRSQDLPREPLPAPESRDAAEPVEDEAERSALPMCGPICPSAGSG
Put plainly: biochemical. Conditions: read-out: % Enzyme Activity (relative to DMSO controls), kinase STK32C/YANK3.

For the next data set, the target named is T6, CYP1A2 (Homo sapiens, UniProt P05177).
T6 sequence (P05177 1-516): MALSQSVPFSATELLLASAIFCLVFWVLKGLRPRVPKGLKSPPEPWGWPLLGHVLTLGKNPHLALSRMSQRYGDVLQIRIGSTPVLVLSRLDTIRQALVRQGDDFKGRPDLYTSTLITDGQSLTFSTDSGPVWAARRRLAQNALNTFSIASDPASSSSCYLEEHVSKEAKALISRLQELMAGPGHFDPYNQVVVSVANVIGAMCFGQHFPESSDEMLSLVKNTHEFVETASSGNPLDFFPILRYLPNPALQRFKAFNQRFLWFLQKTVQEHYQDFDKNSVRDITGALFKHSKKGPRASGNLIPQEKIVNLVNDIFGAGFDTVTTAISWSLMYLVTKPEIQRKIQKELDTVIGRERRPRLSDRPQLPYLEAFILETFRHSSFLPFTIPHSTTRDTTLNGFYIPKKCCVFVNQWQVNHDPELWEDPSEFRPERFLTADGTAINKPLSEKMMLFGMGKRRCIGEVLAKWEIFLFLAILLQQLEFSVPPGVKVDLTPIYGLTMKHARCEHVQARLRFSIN
The data set is described as follows: P450 cocktail inhibition assay, CYP1A2. To be noted: at 10 μM. The format is in vitro ADME. Here is the method: P450s inhibition for four major isoforms are evaluated using a cocktail inhibition assay where the metabolism of specific marker substrate (CYP1A2 phenaceten […] to acetaminophen); CYP2C9, tolbutamide hydroxylation to hydrocytolbutamide; CYP2D6, bufuralol hydroxylation to […]; and CYP3A4, midazolam hydroxylation to 1′-Hydroxymidazolam) in the presence or absence of 10 TM probe compound is evaluated. The concentration of each marker substrate is approximately its Km. […] Specific inhibitors for each isoform are included in each run to validate the system.

The nature of data set [6]: Microsomal stability, human. In kind it is in vitro ADME. Conditions: human microsomes.

With `O=C(Nc1cnn(-c2csc(C(=O)NC3COC3)c2)c1)Nc1ccccc1Cl` [Compound 17, 4-(4-(3-(2-chlorophenyl)ureido)-1H-pyrazol-1-yl)-N-(oxetan-3-yl)thiophene-2-carboxamide], the remaining activity at 5 µM in data set [1] was determined as 106%; in data set [2] it was 98%; in data set [3] it was 102%; in data set [4], 92.8%; in data set [5], 113%. For the same molecule, on CYP1A2, the “CYP-450 % inh. 1A2” value was found to be 6%. Moreover, in data set [6], the “Mic. stability t1/2 Human” value amounted to 1.1 h.

Take `O=C(Nc1cnn(-c2csc(C(=O)NC3COC3)c2)c1)Nc1c(F)cccc1Cl` [Compound 25, 4-(4-(3-(2-chloro-6-fluorophenyl)ureido)-1H-pyrazol-1-yl)-N-(oxetan-3-yl)thiophene-2-carboxamide]: the remaining activity at 5 µM came out at 93.5% in data set [1]; 98.3% in data set [2]; 100% in data set [3]; 92.4% in data set [4]; 90.7% in data set [5]. The “CYP-450 % inh. 1A2” value on CYP1A2 was 36%. In addition, in data set [6], the “Mic. stability t1/2 Human” value was found to be 1.67 h.

As to `Cc1sc(C(=O)NC2COC2)cc1-n1cc(NC(=O)Nc2c(F)cccc2Cl)cn1` [Compound 27, 4-(4-(3-(2-chloro-6-fluorophenyl)ureido)-1H-pyrazol-1-yl)-5-methyl-N-(oxetan-3-yl)thiophene-2-carboxamide], the remaining activity at 10 µM in data set [1] (10 uM) came out at 97.2%; in data set [2] (10 uM), 102%; in data set [3] (10 uM), 111%; in data set [4] (10 uM), 107%; in data set [5] (10 uM), 112%. The “CYP-450 % inh. 1A2” value at CYP1A2 is recorded as 22%. Besides, in data set [6], the “Mic. stability t1/2 Human” value was determined as 1.83 h.
